Values of other authors in patent US20260158012A1 (Beijing Creatron Institute Of Pharmaceutical Research Co. …, priority 2022, published 2026).
Where two headings read alike, the source gives them in different places.

Experiments:
[1] = for Solubility (in words): aqueous media
[2] = tested on: advanced hepatocellular carcinoma
[3] = dosage increased from 400 mg each time to 600 mg each time
[4] = not given; remark: listed apart in the source
[5] = 7 consecutive days
[6] = trough concentration <1.40 μg/mL
[7] = trough concentration ≥3.45 μg/mL

## [2H]C([2H])([2H])NC(=O)c1cc(Oc2ccc(NC(=O)Nc3ccc(Cl)c(C(F)(F)F)c3)cc2)ccn1 [Donafenib, 4-[4-[[4-chloro-3-(trifluoromethyl)phenyl]carbamoylamino]phenoxy]-N-(trideuteriomethyl)pyridine-2-carboxamide]
[1]
  Solubility: <10 µg/mL
  Solubility (in words): Practically insoluble in aqueous

## CNC(=O)c1cc(Oc2ccc(NC(=O)Nc3ccc(Cl)c(C(F)(F)F)c3)cc2)ccn1 [Sorafenib, 4-[4-[[4-chloro-3-(trifluoromethyl)phenyl]carbamoylamino]phenoxy]-N-methylpyridine-2-carboxamide]
pH 1.0
  concentration of sorafenib molecules in the solution: 3400 ng/mL
pH 4.5
  concentration of sorafenib molecules in the solution: 130 ng/mL
[2]; 1.40 μg/mL≤Ctrough<3.45 μg/mL
  overall survival (OS): 17.8 months
  time to treatment failure (TTF): 13.1 months
[2]; [6]
  overall survival (OS): 5.3 months
  progression-free survival (PFS): 4.7 months
  time to treatment failure (TTF): 4.7 months
[2]; trough concentration below 3.45 μg/ml
  incidence of serious adverse reactions above grade 3: 26.7%
[2]; trough concentration exceeded 3.45 μg/ml
  incidence of serious adverse reactions above grade 3: 72.7%
[2]; [7]
  overall survival (OS): 9.5 months
  progression-free survival (PFS): 8.9 months
  time to treatment failure (TTF): 2.4 months
[1]
  Solubility: <10 µg/mL
  oil-water partition coefficient Log P: about 5.6
  Solubility (in words): Practically insoluble in aqueous
[3]
  increase in drug exposure: 13%
[4]; after 2 weeks of treatment, renal cell carcinoma patients
  steady state concentration in the blood (plasma): 881-12,526 ng/mL
[4]; human, in vivo
  blood drug concentration of patients who experienced serious adverse reactions: exceeded 10,000 ng/ml
[4]; renal cell carcinoma patients
  incidence of fatigue: 55.32%
  incidence of hand-foot syndrome: 68.99%
[5]; 200 mg (Bid) oral
  coefficient of variation of AUC0-12 h at steady state: 16.9%
  coefficient of variation of Cmax at steady state: 8.6%
[5]; 400 mg (Bid) oral
  coefficient of variation of AUC0-12 h at steady state: 90.5%
  coefficient of variation of Cmax at steady state: 106.7%
